Here are results for seven molecules from ChEMBL document CHEMBL3991601, “The target landscape of clinical kinase drugs” (Science, 2017).

Activity calls are given as the source filed them.

For test [1], the target named is Dual specificity protein kinase CLK3 (Homo sapiens, UniProt P49761). The class given is subcellular, K-562, COLO 205, SK-N-BE(2) and MV-4-11, Cell lysate. The settings on record: read-out: Kd apparent.
In test [2] the target is Choline-phosphate cytidylyltransferase A (Homo sapiens, UniProt P49585).
Test [3] deals with Serine/threonine-protein kinase 24 (Homo sapiens, UniProt Q9Y6E0).
Test [4] has as its target Serine/threonine-protein kinase PLK1 (Homo sapiens, UniProt P53350).
The next test concerns the target T1, Ephrin type-A receptor 1 (Homo sapiens, UniProt P21709).
T1 sequence (P21709 whole entry): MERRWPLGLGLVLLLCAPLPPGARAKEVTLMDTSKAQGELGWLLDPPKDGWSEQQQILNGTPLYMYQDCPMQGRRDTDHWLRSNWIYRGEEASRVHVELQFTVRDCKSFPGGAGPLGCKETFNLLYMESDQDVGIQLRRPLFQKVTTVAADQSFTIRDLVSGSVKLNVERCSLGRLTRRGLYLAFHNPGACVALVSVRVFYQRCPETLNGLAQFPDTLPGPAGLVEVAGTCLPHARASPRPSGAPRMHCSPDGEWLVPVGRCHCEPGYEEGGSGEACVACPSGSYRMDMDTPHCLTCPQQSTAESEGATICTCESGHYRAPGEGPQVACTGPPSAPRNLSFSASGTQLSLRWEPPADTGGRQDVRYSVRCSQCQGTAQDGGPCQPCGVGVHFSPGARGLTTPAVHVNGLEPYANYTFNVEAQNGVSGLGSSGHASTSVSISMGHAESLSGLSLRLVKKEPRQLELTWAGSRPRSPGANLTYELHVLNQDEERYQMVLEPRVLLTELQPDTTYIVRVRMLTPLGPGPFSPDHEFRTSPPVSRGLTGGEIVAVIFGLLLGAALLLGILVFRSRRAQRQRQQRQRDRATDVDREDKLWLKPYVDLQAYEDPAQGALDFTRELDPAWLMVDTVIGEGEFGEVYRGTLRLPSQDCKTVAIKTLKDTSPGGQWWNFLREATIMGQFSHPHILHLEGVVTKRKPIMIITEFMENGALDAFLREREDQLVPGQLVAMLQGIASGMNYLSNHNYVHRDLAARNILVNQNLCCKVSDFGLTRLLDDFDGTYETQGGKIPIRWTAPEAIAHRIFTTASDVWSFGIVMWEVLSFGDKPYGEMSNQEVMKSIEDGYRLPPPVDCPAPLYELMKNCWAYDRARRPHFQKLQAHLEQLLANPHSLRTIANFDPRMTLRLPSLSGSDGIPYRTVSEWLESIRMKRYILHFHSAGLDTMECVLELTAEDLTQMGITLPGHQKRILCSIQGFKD

Test [5] has as its target Phosphatidylethanolamine-binding protein 1 (Homo sapiens, UniProt P30086).
Test [6] addresses Dual specificity testis-specific protein kinase 1 (Homo sapiens, UniProt Q15569).
Test [7] deals with Serine/threonine-protein kinase pim-2 (Homo sapiens, UniProt Q9P1W9).
Test [8] has as its target Cell division cycle 7-related protein kinase (Homo sapiens, UniProt O00311).
Test [9] concerns the target T2, Long-chain-fatty-acid--CoA ligase 5 (Homo sapiens, UniProt Q9ULC5).
T2 sequence (Q9ULC5 whole entry): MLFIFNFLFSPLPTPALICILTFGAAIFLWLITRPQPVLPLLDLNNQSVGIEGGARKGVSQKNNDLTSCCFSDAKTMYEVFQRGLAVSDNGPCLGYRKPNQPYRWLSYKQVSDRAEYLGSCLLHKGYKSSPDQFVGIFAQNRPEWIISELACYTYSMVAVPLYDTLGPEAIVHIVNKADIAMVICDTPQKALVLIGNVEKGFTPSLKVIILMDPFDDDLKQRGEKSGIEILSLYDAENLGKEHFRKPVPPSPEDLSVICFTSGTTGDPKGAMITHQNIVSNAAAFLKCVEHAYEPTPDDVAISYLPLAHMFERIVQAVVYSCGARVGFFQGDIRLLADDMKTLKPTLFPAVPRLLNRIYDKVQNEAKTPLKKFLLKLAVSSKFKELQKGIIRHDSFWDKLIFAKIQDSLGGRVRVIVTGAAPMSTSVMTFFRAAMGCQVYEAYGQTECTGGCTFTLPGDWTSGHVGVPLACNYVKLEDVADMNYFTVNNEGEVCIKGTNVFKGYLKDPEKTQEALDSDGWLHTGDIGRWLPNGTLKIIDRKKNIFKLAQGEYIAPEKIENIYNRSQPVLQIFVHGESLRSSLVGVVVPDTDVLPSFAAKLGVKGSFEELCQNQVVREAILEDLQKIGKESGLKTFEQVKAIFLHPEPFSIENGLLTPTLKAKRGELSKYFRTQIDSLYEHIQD

Test [10] addresses Protein kinase C theta type (Homo sapiens, UniProt Q04759).
For test [11], the target named is G protein-coupled receptor kinase 6 (Homo sapiens, UniProt P43250).
The target of test [12] is High affinity nerve growth factor receptor (Homo sapiens, UniProt P04629).
In test [13] the target is Hepatocyte growth factor receptor (Homo sapiens, UniProt P08581).
Also: in the data inactive means no Kd found up to 30 µM.

Hepatocyte growth factor receptor, sequence (P08581 whole entry): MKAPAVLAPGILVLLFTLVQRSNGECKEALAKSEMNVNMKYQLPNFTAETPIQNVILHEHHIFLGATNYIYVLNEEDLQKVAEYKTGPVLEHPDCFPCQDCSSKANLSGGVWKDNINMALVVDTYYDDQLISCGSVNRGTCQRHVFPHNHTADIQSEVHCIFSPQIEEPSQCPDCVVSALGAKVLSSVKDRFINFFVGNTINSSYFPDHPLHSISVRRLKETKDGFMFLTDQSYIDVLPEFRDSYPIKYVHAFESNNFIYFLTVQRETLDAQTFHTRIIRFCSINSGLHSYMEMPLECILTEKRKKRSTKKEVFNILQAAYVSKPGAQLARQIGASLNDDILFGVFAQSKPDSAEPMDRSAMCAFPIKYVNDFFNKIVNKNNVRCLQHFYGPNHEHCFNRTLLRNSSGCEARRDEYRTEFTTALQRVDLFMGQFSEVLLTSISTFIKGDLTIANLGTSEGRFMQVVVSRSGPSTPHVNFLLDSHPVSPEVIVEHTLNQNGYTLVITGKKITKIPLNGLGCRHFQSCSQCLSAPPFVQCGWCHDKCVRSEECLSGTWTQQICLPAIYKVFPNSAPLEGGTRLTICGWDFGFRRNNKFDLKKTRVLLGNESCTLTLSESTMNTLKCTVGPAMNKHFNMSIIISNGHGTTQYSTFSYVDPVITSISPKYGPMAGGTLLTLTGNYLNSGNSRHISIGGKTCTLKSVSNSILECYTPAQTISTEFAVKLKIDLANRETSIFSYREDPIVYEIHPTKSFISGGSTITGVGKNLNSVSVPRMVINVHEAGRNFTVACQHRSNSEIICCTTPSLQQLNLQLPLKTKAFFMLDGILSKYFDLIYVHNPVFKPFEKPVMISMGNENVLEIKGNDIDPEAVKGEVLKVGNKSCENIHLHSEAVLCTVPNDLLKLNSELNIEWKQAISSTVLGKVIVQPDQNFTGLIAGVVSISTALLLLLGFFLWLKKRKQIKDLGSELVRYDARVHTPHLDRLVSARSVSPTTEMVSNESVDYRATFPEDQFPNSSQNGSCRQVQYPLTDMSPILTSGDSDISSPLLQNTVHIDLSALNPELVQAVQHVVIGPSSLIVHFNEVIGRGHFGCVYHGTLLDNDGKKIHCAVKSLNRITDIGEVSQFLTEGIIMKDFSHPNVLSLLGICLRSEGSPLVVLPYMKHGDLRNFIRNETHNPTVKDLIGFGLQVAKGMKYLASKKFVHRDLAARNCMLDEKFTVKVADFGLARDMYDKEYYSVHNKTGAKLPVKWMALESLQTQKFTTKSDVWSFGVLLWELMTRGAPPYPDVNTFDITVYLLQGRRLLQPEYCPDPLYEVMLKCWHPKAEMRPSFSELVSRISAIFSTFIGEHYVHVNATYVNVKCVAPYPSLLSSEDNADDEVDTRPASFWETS
G protein-coupled receptor kinase 6, sequence (P43250 whole entry): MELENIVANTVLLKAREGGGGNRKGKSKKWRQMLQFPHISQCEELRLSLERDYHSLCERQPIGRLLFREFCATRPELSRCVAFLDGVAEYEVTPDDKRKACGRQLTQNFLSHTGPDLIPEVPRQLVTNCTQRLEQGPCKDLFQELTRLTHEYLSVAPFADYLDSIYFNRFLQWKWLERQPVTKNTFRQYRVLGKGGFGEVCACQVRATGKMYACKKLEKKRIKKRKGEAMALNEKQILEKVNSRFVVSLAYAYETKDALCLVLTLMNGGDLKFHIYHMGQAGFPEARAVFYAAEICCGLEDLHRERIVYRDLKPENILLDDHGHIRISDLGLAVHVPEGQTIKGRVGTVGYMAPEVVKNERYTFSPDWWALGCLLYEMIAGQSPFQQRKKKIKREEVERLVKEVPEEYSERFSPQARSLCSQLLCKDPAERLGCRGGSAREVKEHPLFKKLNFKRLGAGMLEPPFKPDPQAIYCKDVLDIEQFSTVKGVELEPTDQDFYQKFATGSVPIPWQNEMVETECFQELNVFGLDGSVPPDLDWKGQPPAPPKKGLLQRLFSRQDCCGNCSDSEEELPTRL
High affinity nerve growth factor receptor, sequence (P04629 whole entry): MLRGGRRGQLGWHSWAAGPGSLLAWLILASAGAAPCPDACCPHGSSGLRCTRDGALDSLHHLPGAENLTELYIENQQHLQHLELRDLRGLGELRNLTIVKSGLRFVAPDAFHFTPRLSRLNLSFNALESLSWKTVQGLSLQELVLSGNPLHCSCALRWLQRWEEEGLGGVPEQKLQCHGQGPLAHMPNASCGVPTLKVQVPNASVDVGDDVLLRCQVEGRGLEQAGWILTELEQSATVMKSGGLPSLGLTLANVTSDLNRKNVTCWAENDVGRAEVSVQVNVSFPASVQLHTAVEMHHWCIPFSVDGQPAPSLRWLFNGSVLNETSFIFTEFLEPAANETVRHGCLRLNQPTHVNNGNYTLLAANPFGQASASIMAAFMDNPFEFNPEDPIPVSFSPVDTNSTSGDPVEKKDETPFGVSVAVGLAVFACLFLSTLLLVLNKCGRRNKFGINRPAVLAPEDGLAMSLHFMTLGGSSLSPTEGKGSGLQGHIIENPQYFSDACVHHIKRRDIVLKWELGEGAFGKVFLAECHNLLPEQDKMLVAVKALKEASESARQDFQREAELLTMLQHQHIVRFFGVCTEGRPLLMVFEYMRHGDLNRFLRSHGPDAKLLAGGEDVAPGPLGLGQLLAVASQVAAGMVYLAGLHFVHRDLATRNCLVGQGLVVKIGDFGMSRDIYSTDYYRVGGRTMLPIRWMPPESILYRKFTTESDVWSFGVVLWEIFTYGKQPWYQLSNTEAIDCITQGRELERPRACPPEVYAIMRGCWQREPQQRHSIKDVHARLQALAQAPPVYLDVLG
Phosphatidylethanolamine-binding protein 1, sequence (P30086 whole entry): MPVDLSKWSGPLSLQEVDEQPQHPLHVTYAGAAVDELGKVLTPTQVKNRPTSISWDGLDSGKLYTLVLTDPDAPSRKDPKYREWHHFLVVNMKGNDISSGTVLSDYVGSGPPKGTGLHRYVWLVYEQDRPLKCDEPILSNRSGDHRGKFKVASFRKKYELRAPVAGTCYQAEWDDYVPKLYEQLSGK
Protein kinase C theta type, sequence (Q04759 whole entry): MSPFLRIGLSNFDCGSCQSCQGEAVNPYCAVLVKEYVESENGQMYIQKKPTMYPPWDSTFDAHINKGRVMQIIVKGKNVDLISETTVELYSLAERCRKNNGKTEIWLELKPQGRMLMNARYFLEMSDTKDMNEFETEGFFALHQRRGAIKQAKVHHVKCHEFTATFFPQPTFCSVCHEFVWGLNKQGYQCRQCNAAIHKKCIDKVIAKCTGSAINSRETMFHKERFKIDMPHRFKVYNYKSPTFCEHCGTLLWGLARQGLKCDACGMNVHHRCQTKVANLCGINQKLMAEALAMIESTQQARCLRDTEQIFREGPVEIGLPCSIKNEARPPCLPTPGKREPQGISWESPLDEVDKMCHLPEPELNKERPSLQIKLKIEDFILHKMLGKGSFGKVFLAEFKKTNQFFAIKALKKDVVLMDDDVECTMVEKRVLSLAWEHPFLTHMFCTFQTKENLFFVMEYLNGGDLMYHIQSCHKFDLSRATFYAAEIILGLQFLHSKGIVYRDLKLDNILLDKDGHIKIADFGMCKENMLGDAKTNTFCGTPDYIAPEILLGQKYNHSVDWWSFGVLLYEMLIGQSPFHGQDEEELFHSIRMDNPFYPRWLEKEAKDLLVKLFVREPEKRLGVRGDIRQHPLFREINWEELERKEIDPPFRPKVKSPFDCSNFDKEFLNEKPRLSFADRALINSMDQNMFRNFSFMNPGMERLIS
Serine/threonine-protein kinase PLK1, sequence (P53350 whole entry): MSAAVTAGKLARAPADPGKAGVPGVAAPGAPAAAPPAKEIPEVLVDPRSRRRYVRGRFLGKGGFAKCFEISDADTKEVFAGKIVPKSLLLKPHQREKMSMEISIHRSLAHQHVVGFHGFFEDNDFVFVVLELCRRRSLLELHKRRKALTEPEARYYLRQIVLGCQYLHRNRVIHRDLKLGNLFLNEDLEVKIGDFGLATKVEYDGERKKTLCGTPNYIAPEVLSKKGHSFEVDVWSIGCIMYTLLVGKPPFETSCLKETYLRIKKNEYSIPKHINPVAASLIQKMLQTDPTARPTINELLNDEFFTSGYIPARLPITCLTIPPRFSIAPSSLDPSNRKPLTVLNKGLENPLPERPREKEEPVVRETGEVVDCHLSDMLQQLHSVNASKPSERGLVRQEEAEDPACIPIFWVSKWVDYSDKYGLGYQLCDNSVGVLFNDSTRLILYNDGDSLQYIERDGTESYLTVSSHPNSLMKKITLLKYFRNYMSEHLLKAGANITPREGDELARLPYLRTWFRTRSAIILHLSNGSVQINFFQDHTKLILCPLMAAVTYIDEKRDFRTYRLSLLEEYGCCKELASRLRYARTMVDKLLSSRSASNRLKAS
Serine/threonine-protein kinase pim-2, sequence (Q9P1W9 whole entry): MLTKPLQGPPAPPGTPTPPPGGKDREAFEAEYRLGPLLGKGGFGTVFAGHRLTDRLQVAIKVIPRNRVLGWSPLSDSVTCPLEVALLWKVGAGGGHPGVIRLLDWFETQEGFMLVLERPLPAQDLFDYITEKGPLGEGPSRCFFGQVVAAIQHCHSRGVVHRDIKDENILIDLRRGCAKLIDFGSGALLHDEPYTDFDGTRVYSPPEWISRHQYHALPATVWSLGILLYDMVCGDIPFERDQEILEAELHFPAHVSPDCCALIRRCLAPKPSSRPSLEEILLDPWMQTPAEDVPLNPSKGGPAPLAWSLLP
Serine/threonine-protein kinase 24, sequence (Q9Y6E0 whole entry): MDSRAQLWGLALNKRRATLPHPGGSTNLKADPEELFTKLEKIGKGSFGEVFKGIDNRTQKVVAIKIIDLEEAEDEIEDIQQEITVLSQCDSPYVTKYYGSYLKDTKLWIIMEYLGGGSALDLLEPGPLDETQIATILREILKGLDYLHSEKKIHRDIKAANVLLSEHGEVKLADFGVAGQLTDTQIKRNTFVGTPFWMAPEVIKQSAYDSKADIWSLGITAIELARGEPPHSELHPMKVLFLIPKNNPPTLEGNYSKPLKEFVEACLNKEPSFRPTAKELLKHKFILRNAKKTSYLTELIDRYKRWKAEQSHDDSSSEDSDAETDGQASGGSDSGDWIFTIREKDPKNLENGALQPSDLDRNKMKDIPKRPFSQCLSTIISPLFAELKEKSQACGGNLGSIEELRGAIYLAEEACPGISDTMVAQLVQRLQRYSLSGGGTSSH

Regarding `OCCn1cc(-c2cnc3nnn(Cc4ccc5ncccc5c4)c3n2)cn1` [PF-04217903], the Kd (in test [1]; in [2]; in test [3]; in [4]; at Ephrin type-A receptor 1; in test [5]) was > 30 µM (inactive) in each case. Further, the Kd in test [6], in test [7], in test [8] and in test [9] was > 30 µM (inactive) each time.

As for `CC(=O)Nc1cccc(-n2c(=O)n(C3CC3)c(=O)c3c(Nc4ccc(I)cc4F)n(C)c(=O)c(C)c32)c1` [TRAMETINIB], the Kd in test [1], in test [2], in test [10], in [3], in test [4] and in test [11] was > 30 µM (inactive) in each case. Also, the Kd (at Ephrin type-A receptor 1; in test [5]; in test [12]; in test [6]; in [7]; in test [13]) was > 30 µM (inactive) each time. The Kd in test [8] is > 30 µM (inactive).

Consider `COc1cc(CCc2cc(NC(=O)c3ccc(N4C[C@@H](C)N[C@@H](C)C4)cc3)n[nH]2)cc(OC)c1` [AZD-4547], for which the Kd (in test [1]; in test [10]; in test [3]; in test [4]; in [11]; on Ephrin type-A receptor 1) was > 30 µM (inactive) in each case. In addition, the Kd was 2.25 µM in test [12]; > 30 µM (inactive) in test [6]; > 30 µM (inactive) in test [7]; > 30 µM (inactive) in [13]; > 30 µM (inactive) in test [8]; > 30 µM (inactive) in test [9].

As for `Cc1ccc(NC(=O)c2ccc(CN3CC[C@H](N(C)C)C3)c(C(F)(F)F)c2)cc1Nc1nccc(-c2cncnc2)n1` [BAFETINIB], the Kd (in [1]; in test [2]; in test [10]; in test [4]; in [11]; at Ephrin type-A receptor 1) was > 30 µM (inactive) each time. The Kd in [5], in [12], in [6], in test [7], in [13] and in test [9] was > 30 µM (inactive) in each case.

For the molecule `COCCNCc1ccc(-c2cc3nccc(Oc4ccc(NC(=S)NC(=O)Cc5ccc(F)cc5)cc4F)c3s2)nc1` [GLESATINIB], the Kd in test [1], in [2], in [10], in test [3], in test [4] and in test [11] was > 30 µM (inactive) each time. Further, the Kd (at Ephrin type-A receptor 1; in test [5]; in test [12]; in test [6]; in [7]; in test [8]) was > 30 µM (inactive) in each case. Further, the Kd in test [9] was > 30 µM (inactive).

For `Cn1cc(-c2ccc3nnc(C(F)(F)c4ccc5ncccc5c4)n3n2)cn1` [JNJ-38877605], the Kd (in [1]; in test [2]; in test [10]; in test [4]; in [11]; at Ephrin type-A receptor 1) was > 30 µM (inactive) throughout. The Kd in [5] was > 30 µM (inactive); in test [12] it was > 30 µM (inactive); in test [6], > 30 µM (inactive); in test [7], > 30 µM (inactive); in test [13] it was 0.002 µM (active); in [8], > 30 µM (inactive). In addition, the Kd in [9] was > 30 µM (inactive).

As for `CN1CC[C@@H](c2c(O)cc(O)c3c(=O)cc(-c4ccccc4Cl)oc23)[C@@H]1CO`, the Kd is > 30 µM (inactive) in test [1]; > 30 µM (inactive) in test [10]; > 30 µM (inactive) in [3]; 0.021 µM in [4]; > 30 µM (inactive) in test [11]; > 30 µM (inactive) at Ephrin type-A receptor 1. In addition, the Kd in test [5] is > 30 µM (inactive); in test [12] it was > 30 µM (inactive); in test [6], > 30 µM (inactive); in test [7], > 30 µM (inactive); in [13], 6.67 µM; in [8] it was > 30 µM (inactive). The Kd in test [9] is > 30 µM (inactive).
